Values of other authors, collected in patent US20240156808A1, “Compositions and methods to improve the therapeutic benefit of suboptimally chemical compounds and biological therapies including substituted camptothecins such as irinotecan and topotecan for the treatment of benign and neoplastic hyperproliferative disease conditions, infections, inflammatory and …” (Edison Oncology, priority 2021, published 2024).

Tests used:
CES2 = biological target: T1, CES2 (Homo sapiens, UniProt O00748); settings: CES2 versus CES1
T1 sequence (O00748 27-559): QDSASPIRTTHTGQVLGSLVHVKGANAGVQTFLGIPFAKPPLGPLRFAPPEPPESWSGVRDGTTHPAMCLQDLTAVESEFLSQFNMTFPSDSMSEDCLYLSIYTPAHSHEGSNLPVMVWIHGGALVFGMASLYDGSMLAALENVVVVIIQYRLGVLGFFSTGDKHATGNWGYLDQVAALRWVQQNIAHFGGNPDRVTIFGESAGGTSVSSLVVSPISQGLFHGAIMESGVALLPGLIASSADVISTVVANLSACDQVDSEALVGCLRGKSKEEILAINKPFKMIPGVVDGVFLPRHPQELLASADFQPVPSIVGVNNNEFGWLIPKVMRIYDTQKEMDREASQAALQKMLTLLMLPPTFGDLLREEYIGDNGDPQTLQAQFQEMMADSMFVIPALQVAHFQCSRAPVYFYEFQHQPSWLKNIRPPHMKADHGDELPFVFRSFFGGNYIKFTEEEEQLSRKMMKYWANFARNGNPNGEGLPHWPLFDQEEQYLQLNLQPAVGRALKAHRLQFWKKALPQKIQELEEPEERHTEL

SMILES | elimination half-life (SN-38) [h] | time to peak plasma concentration (after infusion) | distribution half-life (in vivo) | fraction of irinotecan hydrolyzed to SN-38 (in the liver by CES1 and CES2, also in plasma by butyrylcholinesterase) | affinity of CES2 for irinotecan relative to CES1 (CES2) [fold]
CCc1c2c(nc3ccc(O)cc13)-c1cc3c(c(=O)n1C2)COC(=O)[C@]3(O)CC [SN-38] | 6 to 32 | two | about 8 minutes |  | 
CCc1c2c(nc3ccc(OC(=O)N4CCC(N5CCCCC5)CC4)cc13)-c1cc3c(c(=O)n1C2)COC(=O)[C@]3(O)CC [irinotecan, (S)-4,11-diethyl-3,4,12,14-tetrahydro-4-hydroxy-3,14-dioxo1H-pyrano[3′,4′:6,7]-indolizino[1,2-b]quinolin-9-yl-[1,4′bipiperidine]-1′-carboxylate] |  |  |  | 2-5% | 12.5
